Non-standard residues stand in square brackets, D forms with d. Residues, ends and D or L forms follow the SMILES beside them.

These results are taken from paper PMC2954226, “Structure of the γ-D-glutamyl-L-diamino acid endopeptidase YkfC from Bacillus cereus in complex with L-Ala-γ-D-Glu: insights into substrate recognition by NlpC/P60 cysteine peptidases” (Acta Crystallographica Section F: Structural Biology and …, 2010).

The assay addresses T1, BcYkfC (Bacillus cereus, UniProt Q736M3).
T1 construct: gene ykfC; signal peptide (residues 1-23) removed; N-terminal His tag cut by TEV leaving Gly0; selenomethionine protein from E. coli; SH3b1 (29-129), SH3b2 (130-207) and NlpC/P60 (208-333) domains; model 29-333; monomer
T1 sequence (Q736M3 24-333): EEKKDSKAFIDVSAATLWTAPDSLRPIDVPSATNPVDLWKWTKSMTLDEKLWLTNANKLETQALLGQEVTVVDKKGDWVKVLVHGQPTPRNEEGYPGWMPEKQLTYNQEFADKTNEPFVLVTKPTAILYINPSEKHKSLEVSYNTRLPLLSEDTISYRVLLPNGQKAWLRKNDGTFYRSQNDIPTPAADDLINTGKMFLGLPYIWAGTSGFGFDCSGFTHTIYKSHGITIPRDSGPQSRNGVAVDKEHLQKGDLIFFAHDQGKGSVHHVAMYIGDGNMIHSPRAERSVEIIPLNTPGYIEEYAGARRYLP
Description: X-ray crystal structure, […] Å (SeMet MAD). It counts as binding. Particulars: ligand co-purified, most likely from E. coli expression host; S2-S1 site; catalytic Cys238 oxidized (OCS), enzyme inactive in the crystal; crystallized at pH 4.2, 277 K.

For `C[C@H](N)C(=O)N[C@H](CCC(=O)O)C(=O)O` [L-Ala-γ-D-Glu] (H-Ala-[dE]-OH), the “X-ray crystal structure, 1.79 Å (SeMet MAD)” value is listed as “The dipeptide L-Ala-γ-D-Glu was identified from well defined electron density in the active site”.
